These results are taken from US10479780B2, “Aminopyrazole derivatives” (Chugai Seiyaku Kabushiki Kaisha, priority 2015, dated 2019).

Each structure is given as a SMILES string. Where two headings read alike, the source gives them in different places.

Common to all, as to type: biochemical
The target of one assay is T1, human Lck enzyme (Homo sapiens, UniProt P06239).
T1 construct: purchased Carna Biosciences, Inc. 08-170
Kind of assay: Lck enzyme inhibitory activity (time-resolved fluorometry, biotinylated peptide phosphorylation). Particulars: read-out: LCK_IC50. In a few lines: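 Readout pairs a europium cryptate-labelled anti-phosphotyrosine antibody with XL665-streptavidin, measured by time-resolved fluorescence. IC50 derived from percent inhibition against untreated controls.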

The next assay has as its target T2, human Src enzyme (Homo sapiens, UniProt P12931).
T2 construct: purchased Carna Biosciences, Inc. 08-173
Kind of assay: Src enzyme inhibitory activity (time-resolved fluorometry, biotinylated peptide phosphorylation). The note with it: read-out: SRC_IC50. The essentials: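 Compounds were tested for blocking tyrosine phosphorylation of a biotinylated peptide substrate by recombinant human Src. Phosphorylated product was quantified by time-resolved fluorometry using europium cryptate and XL665 conjugates, and IC50 was calculated against the compound-free control.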

In the next assay the target is T3, human Yes1 enzyme (Homo sapiens, UniProt P07947).
T3 construct: made in house
Kind of assay: Yes1 enzyme inhibitory activity (time-resolved fluorometry, biotinylated peptide phosphorylation). The note with it: read-out: YES_IC50. The essentials: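 Inhibition was expressed against a compound-free control to give IC50, using TR-FRET read-out (Eu-cryptate anti-pTyr antibody, streptavidin-XL665).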

Setting [1] is: biotinylated peptide phosphorylation.

T1 sequence (P06239 whole entry): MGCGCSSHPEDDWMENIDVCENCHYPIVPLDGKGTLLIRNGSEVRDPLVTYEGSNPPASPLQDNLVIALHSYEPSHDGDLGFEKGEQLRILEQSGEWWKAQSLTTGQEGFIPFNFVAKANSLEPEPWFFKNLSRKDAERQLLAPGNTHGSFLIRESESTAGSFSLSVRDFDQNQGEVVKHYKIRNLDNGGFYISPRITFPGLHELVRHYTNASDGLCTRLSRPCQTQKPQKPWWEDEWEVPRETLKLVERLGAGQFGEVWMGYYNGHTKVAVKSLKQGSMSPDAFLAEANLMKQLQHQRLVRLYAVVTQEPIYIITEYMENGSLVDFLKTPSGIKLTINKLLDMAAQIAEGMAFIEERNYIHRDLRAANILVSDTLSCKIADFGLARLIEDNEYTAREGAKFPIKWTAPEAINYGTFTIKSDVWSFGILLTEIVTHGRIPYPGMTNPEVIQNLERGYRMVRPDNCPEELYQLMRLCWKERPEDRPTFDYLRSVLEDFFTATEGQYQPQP
T2 sequence (P12931 whole entry): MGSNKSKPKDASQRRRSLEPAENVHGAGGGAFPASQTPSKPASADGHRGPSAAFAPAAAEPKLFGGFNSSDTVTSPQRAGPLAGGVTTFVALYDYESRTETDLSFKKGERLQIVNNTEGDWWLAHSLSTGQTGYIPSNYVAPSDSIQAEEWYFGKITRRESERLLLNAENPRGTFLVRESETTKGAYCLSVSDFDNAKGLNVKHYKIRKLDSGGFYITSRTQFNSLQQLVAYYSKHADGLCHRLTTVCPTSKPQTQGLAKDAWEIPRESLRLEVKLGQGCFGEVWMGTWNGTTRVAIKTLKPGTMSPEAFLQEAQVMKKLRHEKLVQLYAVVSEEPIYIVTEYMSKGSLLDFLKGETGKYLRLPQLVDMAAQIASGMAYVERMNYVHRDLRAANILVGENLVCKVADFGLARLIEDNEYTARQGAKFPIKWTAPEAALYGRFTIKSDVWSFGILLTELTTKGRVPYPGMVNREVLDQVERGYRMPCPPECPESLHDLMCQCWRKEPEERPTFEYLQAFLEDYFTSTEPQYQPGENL
T3 sequence (P07947 whole entry): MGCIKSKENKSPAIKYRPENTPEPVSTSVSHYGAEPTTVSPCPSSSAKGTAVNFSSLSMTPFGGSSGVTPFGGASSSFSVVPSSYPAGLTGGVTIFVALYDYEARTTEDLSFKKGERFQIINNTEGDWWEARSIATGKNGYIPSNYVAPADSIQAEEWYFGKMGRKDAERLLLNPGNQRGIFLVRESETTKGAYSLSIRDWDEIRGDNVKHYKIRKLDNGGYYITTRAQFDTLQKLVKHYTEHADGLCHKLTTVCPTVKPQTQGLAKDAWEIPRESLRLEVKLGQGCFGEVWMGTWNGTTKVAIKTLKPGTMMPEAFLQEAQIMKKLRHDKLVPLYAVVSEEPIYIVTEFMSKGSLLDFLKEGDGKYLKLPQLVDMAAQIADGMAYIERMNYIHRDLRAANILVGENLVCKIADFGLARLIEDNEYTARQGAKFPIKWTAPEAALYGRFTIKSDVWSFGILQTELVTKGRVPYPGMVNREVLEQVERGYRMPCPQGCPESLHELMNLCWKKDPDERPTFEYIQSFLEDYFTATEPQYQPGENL

As for `Cc1cc2cc(C(=O)c3cnn(-c4ccc(Oc5ncccc5Cl)cc4Cl)c3N)[nH]c2cc1N1CCCS1(=O)=O` [Example 5-1-062, [5-amino-1-[2-chloro-4-(3-chloropyridin-2-yl)oxyphenyl]pyrazol-4-yl]-[6-(1,1-dioxo-1,2-thiazolidin-2-yl)-5-methyl-1H-indol-2-yl] methanone], the IC50 on human Lck enzyme was 13 nM; on human Src enzyme, 48 nM; at human Yes1 enzyme it was 2.4 nM.
`COc1cccc(S(=O)(=O)Nc2cc3[nH]c(C(=O)c4cnn(-c5cnc(Oc6ccccc6F)cc5C)c4N)cc3cc2C)c1` [Example 5-1-439, N-[2-[5-amino-1-[6-(2-fluorophenoxy)-4-methylpyridin-3-yl]pyrazole-4-carbonyl]-5-methyl-1H-indol-6-yl]-3-methoxybenzenesulfonamide]: the IC50 at human Lck enzyme (setting [1]) is 310 nM; on human Src enzyme (setting [1]) it was 690 nM; on human Yes1 enzyme (setting [1]) it was 7.3 nM.
On to `Cc1cc2cc(C(=O)c3cnn(-c4ccc(Oc5ccccc5F)cc4C)c3N)[nH]c2cc1N1C(=O)N[C@@H](C)C1=O` [Example 5-1-444, (5S)-3-[2-[5-amino-1-[4-(2-fluorophenoxy)-2-methylphenyl]pyrazole-4-carbonyl]-5-methyl-1H-indol-6-yl]-5-methylimidazolidine-2,4-dione], for which the IC50 is 3.9 nM at human Lck enzyme (setting [1]), 13 nM on human Src enzyme (setting [1]) and 0.65 nM on human Yes1 enzyme (setting [1]).
Regarding `Cc1cc(Oc2ccccc2F)cc(F)c1-n1ncc(C(=O)c2cc3cc(OC(F)F)c(N4CCCS4(=O)=O)cc3[nH]2)c1N` [Example 4-25-003, [5-amino-1-[2-fluoro-4-(2-fluorophenoxy)-6-methylphenyl]pyrazol-4-yl]-[5-(difluoromethoxy)-6-(1,1-dioxo-1,2-thiazolidin-2-yl)-1H-indol-2-yl]methanone], the IC50 at human Lck enzyme (setting [1]) was found to be 19 nM; on human Src enzyme (setting [1]) it was 130 nM; at human Yes1 enzyme (setting [1]), 3.9 nM.
Consider `Cc1cc(Oc2c(F)cccc2F)ncc1-n1ncc(C(=O)c2cc3cc(OC4CCN(C(C)C)CC4)c(NS(C)(=O)=O)cc3[nH]2)c1N` [Example 5-1-184, N-[2-[5-amino-1-[6-(2,6-difluorophenoxy)-4-methylpyridin-3-yl]pyrazole-4-carbonyl]-5-(1-propan-2-ylpiperidin-4-yl)oxy-1H-indol-6-yl] methanesulfonamide], for which the IC50 on human Lck enzyme stood at 2.6 nM; on human Src enzyme, 11 nM; at human Yes1 enzyme, 0.43 nM.
Turning to `Cc1cc(Oc2c(F)cccc2F)ncc1-n1ncc(C(=O)c2cc3cc(OCC(F)F)c(-c4cccs4)cc3[nH]2)c1N` [Example 5-1-257, [5-amino-1-[6-(2,6-difluorophenoxy)-4-methylpyridin-3-yl]pyrazol-4-yl]-[5-(2,2-difluoroethoxy)-6-thiophen-2-yl-1H-indol-2-yl] methanone], the values for the IC50 on human Lck enzyme, at human Src enzyme and on human Yes1 enzyme were 95 nM, 250 nM and 40 nM, respectively.
As for `COc1cc2cc(C(=O)c3cnn(-c4cnc(Oc5ccccc5F)cc4C)c3N)[nH]c2cc1NS(=O)(=O)CC(=O)NC(C)C` [Example 4-10-015, 2-[[2-[5-amino-1-[6-(2-fluorophenoxy)-4-methylpyridin-3-yl]pyrazole-4-carbonyl]-5-methoxy-1H-indol-6-yl]sulfamoyl]-N-propan-2-ylacetamide], the IC50 on human Lck enzyme (setting [1]) stood at 7.2 nM; on human Src enzyme (setting [1]), 58 nM; at human Yes1 enzyme (setting [1]), 1.1 nM.
For `COc1cc2cc(C(=O)c3cnn(-c4cnc(Oc5c(F)cccc5F)cc4C)c3N)[nH]c2cc1N1CCCS1(=O)=O` [Example 4-2-121, [5-amino-1-[6-(2,6-difluorophenoxy)-4-methylpyridin-3-yl]pyrazol-4-yl]-[6-(1,1-dioxo-1,2-thiazolidin-2-yl)-5-methoxy-1H-indol-2-yl]methanone], in that order: 2.1 nM, 8 nM and 0.54 nM.
The matching figures for `Cc1cc2[nH]c(C(=O)c3cnn(-c4cnc(Oc5ccccc5F)cc4C)c3N)cc2cc1NS(C)(=O)=O` [Example 4-2-052, N-[2-[5-amino-1-[6-(2-fluorophenoxy)-4-methylpyridin-3-yl]pyrazole-4-carbonyl]-6-methyl-1H-indol-5-yl]methanesulfonamide]: 0.97 nM, 5.2 nM and 0.44 nM.
`Cc1cc(Oc2c(F)cccc2F)ncc1-n1ncc(C(=O)c2cc3cc(OC4CCN(C(C)C)CC4)c(C4CCOCC4)cc3[nH]2)c1N` [Example 5-1-248, [5-amino-1-[6-(2,6-difluorophenoxy)-4-methylpyridin-3-yl]pyrazol-4-yl]-[6-(oxan-4-yl)-5-(1-propan-2-ylpiperidin-4-yl)oxy-1H-indol-2-yl]methanone]: the IC50 was found to be 4.7 nM at human Lck enzyme, 7.9 nM on human Src enzyme and 0.97 nM on human Yes1 enzyme.
On to `Cc1cc2cc(C(=O)c3cnn(-c4cnc(Oc5c(F)cccc5F)cc4C)c3N)[nH]c2cc1NS(C)(=O)=O` [Example 4-1-001, N-{2-{5-amino-1-[6-(2,6-difluorophenoxy)-4-methylpyridin-3-yl]pyrazole-4-carbonyl}-5-methyl-1H-indol-6-yl}methanesulfonamide], for which the IC50 on human Lck enzyme (setting [1]) turned out to be 8.2 nM; on human Src enzyme (setting [1]) it was 45 nM; on human Yes1 enzyme (setting [1]), 1.2 nM.
As for `Cc1cc(-n2ncc(C(=O)c3cc4cc(OC5CCN(CCO)CC5)c(Br)cc4[nH]3)c2N)ccc1Oc1ccccc1F` [Example 5-1-225, [5-amino-1-[4-(2-fluorophenoxy)-3-methylphenyl]pyrazol-4-yl]-[6-bromo-5-[1-(2-hydroxyethyl)piperidin-4-yl]oxy-1H-indol-2-yl]methanone], the IC50 on human Lck enzyme amounted to 12 nM; at human Src enzyme, 89 nM; on human Yes1 enzyme, 0.46 nM.
On to `Cc1cc(Oc2ccccc2F)ccc1-n1ncc(C(=O)c2cc3cc(OC(F)F)c(N4C(=O)NC(C)(C)C4=O)cc3[nH]2)c1N` [Example 4-23-035, 3-[2-[5-amino-1-[4-(2-fluorophenoxy)-2-methylphenyl]pyrazole-4-carbonyl]-5-(difluoromethoxy)-1H-indol-6-yl]-5,5-dimethylimidazolidine-2,4-dione], for which the IC50 on human Lck enzyme (setting [1]) was 7 nM; at human Src enzyme (setting [1]), 30 nM; at human Yes1 enzyme (setting [1]), 0.63 nM.
As for `Cc1cc(Oc2ccccc2F)ncc1-n1ncc(C(=O)c2cc3cc(OCC(F)F)c(NS(=O)(=O)C4CCOCC4)cc3[nH]2)c1N` [Example 5-1-326, N-[2-[5-amino-1-[6-(2-fluorophenoxy)-4-methylpyridin-3-yl]pyrazole-4-carbonyl]-5-(2,2-difluoroethoxy)-1H-indol-6-yl]oxane-4-sulfonamide], the IC50 at human Lck enzyme came out at 25 nM; at human Src enzyme it was 54 nM; on human Yes1 enzyme, 0.85 nM.
The matching figures for `Cc1cc(Oc2c(F)cccc2F)ncc1-n1ncc(C(=O)c2cc3cc(OCC(F)F)c(N4C(=O)NC5(CCN(Cc6ccccc6)C5)C4=O)cc3[nH]2)c1N` (stereo not drawn) [Example 5-1-354, 3-[2-[5-amino-1-[6-(2,6-difluorophenoxy)-4-methylpyridin-3-yl]pyrazole-4-carbonyl]-5-(2,2-difluoroethoxy)-1H-indol-6-yl]-7-benzyl-1,3,7-triazaspiro[4.4]nonane-2,4-dione]: 2.9 nM, 13 nM and 1.4 nM.
